From ChEMBL document CHEMBL3091329, “Discovery of tetrahydroisoquinoline-based CXCR4 antagonists” (ACS Med Chem Lett, 2013)

Columns and labels:
[1] = AUC (0 to infinity) in jugular pre-cannulated Harlan Sprague-Dawley rat at 2 mg/kg, iv; type: ADME, organism-based; set-up: time infinity, dose 2 mg/kg, route intravenous; details: plasma
[2] = target: T1, C-C chemokine receptor type 9 (Homo sapiens) (UniProt P51686); test: Inhibition of CCR9 (unknown origin) at 10 uM relative to control
T1 sequence (whole entry): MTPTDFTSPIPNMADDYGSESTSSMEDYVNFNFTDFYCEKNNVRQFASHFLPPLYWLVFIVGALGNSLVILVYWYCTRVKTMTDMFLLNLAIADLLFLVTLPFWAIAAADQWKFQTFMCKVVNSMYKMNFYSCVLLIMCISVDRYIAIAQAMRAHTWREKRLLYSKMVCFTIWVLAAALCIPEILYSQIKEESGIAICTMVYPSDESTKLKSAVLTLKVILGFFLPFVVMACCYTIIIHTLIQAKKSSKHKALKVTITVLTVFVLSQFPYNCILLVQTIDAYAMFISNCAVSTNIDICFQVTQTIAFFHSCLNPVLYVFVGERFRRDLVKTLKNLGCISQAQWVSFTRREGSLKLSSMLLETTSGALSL

NCCCCN(C[C@H]1Cc2ccccc2CN1)[C@H]1CCCc2cccnc21
AUC(0-inf) [1]: 108 ng·h/mL | inhibition [2]: < 10%
